Test results from publication PMC9173638 (PLoS Genetics, 2022).
“And” between values parts separate entries of the source, which are not always exact repeats. Identical values can stand only once. “Also recorded” adds a separate entry of the source. No end group written: not given here.

Key:
PepF [1] = assay: Screening of sXIP variants for susceptibility to PepF degradation; format: in vitro ADME, Streptococcus salivarius HSISS4; details: for percentage of signal loss: peptide 500 nM pre-incubated with PepF 7 nM, 4 h, 37°C vs without PepF, PcomS-luxAB ΔcomS reporter luminescence, mean of technical triplicates; for peptidase resistance in the screening: PepF 7 nM, peptide 500 nM, signal loss compared with native XIP
Experimental: We next investigated which residues of the pheromone are crucial for peptidase cleavage and screened 20 peptides variants with single XIP mutations. We incubated those peptides with PepF at a mid-range concentration previously identified for the native XIP ([PepF] of 7 nM and [XIP] of 500 nM). Next, we added the peptides incubated or not with PepF to the PcomS-luxAB ΔcomS reporter strain and analyzed the percentage of signal loss upon incubation with the peptidase. […] To quantify more accurately the PepF resistance of variants at those two positions, we used the same degradation assay as used for native sXIP and measured the EC50 for each variant (Figs 5A and S5). Since F4W, F4Y and A5I variants were the most resistant, we combined mutations at positions 4 and 5 in a single peptide to increase its robustness to degradation. […] Because our degradation assay is based on an indirect method of quantification through the use of a reporter strain, bias could be introduced by the effect of the mutations on the ComR-pheromone affinity. To rule out this possibility, we measured the ComR-binding properties of the peptides by electrophoretic mobility shift assays (S6 Fig). Since no correlation between peptide-binding to ComR and pheromone sensitivity to degradation could be drawn, we concluded that the luciferase degradation assay reflects the peptide susceptibility to PepF.
Supplementary file pgen.1010198.s004.tif: S4 Fig Screening of sXIP variants for competence activation and susceptibility to PepF degradation. Specific maximum luciferase activity (RLU/OD600) upon peptide addition is plotted against the loss of signal with the peptide pre-incubated with PepF (plotted as a percentage of signal loss). A total number of 20 sXIP variants of the native S. salivarius sXIP (LPYFAGCL) were tested. The different peptides (500 nM) were incubated during 4 h at 37°C with or without PepF (7 nM). The reaction mixture was then 10-fold diluted by addition to an exponential growing culture (CDM) of the reporter strain defective for the genetically-encoded pheromone XIP (PcomS-luxAB ΔcomS). Dots represents mean of technical triplicates. […] Red/blue dots denote peptides discarded/selected for subsequent characterization due to their weak/strong induction of competence. (TIF) Click here for additional data file.

PepF [2] = assay: recombinant PepF in reaction buffer (20 mM Tris HCl, pH 7.0); details: S. salivarius HSISS4, 37°C, up to 4 h
PepF [3] = molecular target: PepF (Streptococcus salivarius K12, UniProt J7TQB7); format: in vitro ADME, Streptococcus salivarius HSISS4; details: PepF gradient, peptide 500 nM, 4 h, 37°C
Chain of PepF (Streptococcus salivarius K12, UniProt J7TQB7) (J7TQB7 entry or part of it): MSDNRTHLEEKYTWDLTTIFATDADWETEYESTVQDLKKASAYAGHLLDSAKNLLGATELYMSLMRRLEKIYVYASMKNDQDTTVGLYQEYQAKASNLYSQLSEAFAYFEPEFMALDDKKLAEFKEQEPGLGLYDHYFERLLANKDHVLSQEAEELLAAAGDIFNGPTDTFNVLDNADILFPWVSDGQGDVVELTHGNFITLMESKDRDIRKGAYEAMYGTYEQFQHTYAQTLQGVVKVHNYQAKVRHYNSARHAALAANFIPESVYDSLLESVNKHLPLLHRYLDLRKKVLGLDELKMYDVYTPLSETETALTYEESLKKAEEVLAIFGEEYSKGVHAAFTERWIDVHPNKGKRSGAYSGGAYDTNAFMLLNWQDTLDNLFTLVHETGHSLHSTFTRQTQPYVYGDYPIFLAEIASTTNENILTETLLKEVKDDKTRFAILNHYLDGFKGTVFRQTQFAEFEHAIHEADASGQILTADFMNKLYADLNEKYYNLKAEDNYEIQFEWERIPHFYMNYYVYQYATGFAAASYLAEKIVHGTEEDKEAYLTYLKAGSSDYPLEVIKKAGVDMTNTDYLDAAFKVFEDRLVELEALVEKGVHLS
Experimental: (§1) Overnight precultures were diluted at a final OD600 of 0.05. A volume of 300 μL of culture samples was transferred in the wells of a sterile covered white microplate with a transparent bottom (Greiner, Alphen a/d Rijn, The Netherlands). These culture samples were supplemented with D-xylose or IPTG if stated or further incubated for 100 min at 37°C before supplementation with sXIP or other peptides variants. Growth (OD600) and luciferase (Lux) activity (expressed in relative light units, RLU) were monitored at 10 min intervals during 6 to 24 h in a Hidex Sense microplate reader (Hidex, Lemminkäisenkatu, Finland). Specific or maximum specific Lux activity were obtained by dividing Lux activity by the OD600 for each measurement and summing all the data obtained over time or selecting the maximum value, respectively. Biological or technical triplicates were then averaged. Statistical analyses of simple and multiple comparisons to the control mean were performed with t-test (unilateral distribution, heteroscedastic) and one-way ANOVA with Dunnett’s test, respectively. For both, standard deviations and P values were calculated.
For PepF purification, the PCR-amplified pepF gene from strain HSISS4 was cloned into the pBAD-covR-STN-ter vector [24]. […] Protein purity was analyzed by SDS-PAGE and concentration was measured using a Nanodrop apparatus (A280 method; ThermoFisher Scientific). […]

PepF [4] = assay: Kinetics of peptide degradation by PepF; format: in vitro ADME, Streptococcus salivarius HSISS4; details: PepF 8 nM, peptide 500 nM, 6 h, 37°C
Experimental: Fig 5 Degradation of PepF-resistant sXIP peptides. (A) PepF degradation efficiency for XIP (LPY[F/Y/W][A/M/I/V]GCL) variants. […] Bars denote standard deviations on the EC50 computation. (B) XIP and XIPF4WA5I kinetics of degradation by PepF. PepF (8 nM) and the peptides (500 nM) were incubated 6 hours at 37°C and sampled every hour for analysis. Reaction was stopped by adding 1 mM EDTA and further added to the PcomS-luxAB ΔcomS reporter strain as previously described. Dots show technical triplicates, the line connects mean values with error bars (standard deviation).
(§2) sXIP and derivatives were incubated at 500 nM with PepF at different concentrations ranging from 100 to 0.025 nM during 4 h at 37°C as described in the previous section. 30 μL of the mix was then added to 270 μL of exponential phase culture of a PcomS reporter strain defective for the pheromone (PcomS-luxAB ΔcomS) and maximum luciferase activity was computed as reported above. Maximum values obtained were normalized by the signal recorded for the peptide incubated without the peptidase and enzyme concentration affording half luminescence (EC50) was extrapolated using Graphpad Prism and the non-linear extrapolation equation: Signal=b+(t−b)/(1+IC50/[PepF]^HS) where t stands for top, b for bottom, and HS for Hill-Slope.

PepFSsa = format: in vitro ADME, Streptococcus salivarius HSISS4; details: from EC50 values
Experimental: as §2
Supplementary file pgen.1010198.s009.tif: S9 Fig Conservation of PepF in salivarius streptococci and susceptibility of S. vestibularis sXIP to PepF degradation. (A) Alignment of PepF performed with CLC Main Workbench multiple alignment tool (http://www.clcbio.com/products/clc-main-workbench/). PepF from 4 representative strains (i.e. S. salivarius HSISS4, S. thermophilus LMD-9, S. thermophilus LMG18311 and S. vestibularis NTC12167) were used for the alignment. Red, orange, and yellow denote 100%, 75%, and 50% conservation, respectively. The conserved Zinc-binding motif HEXXH is underlined. […]

[5] = tested on: PcomS-luxAB ΔcomS reporter strain; assay: Screening of sXIP variants for competence activation; format: cell-based, Streptococcus salivarius; details: peptide 500 nM incubated 4 h 37°C without PepF, 10-fold diluted into PcomS-luxAB ΔcomS culture (CDM); mean of technical triplicates
Experimental: as §1
Supplementary file pgen.1010198.s004.tif: S4 Fig Screening of sXIP variants for competence activation and susceptibility to PepF degradation. […]

Substance | percentage of signal loss (PepF [1]) | further results
APYFAGCL [APYFAGCL] | 87.3461% and 90.7518% | 
APYFMGCL [APYFMGCL] | 99.0138% | 
ITILPYFAGCL [ITILPYFAGCL] | 99.5087% | 
LAYFAGCL [LAYFAGCL] | 40.0979% | 
LPAFAGCL [LPAFAGCL] | 83.5452% | 
LPWFAGCL [LPWFAGCL] | 97.3022% | 
LPYAAGCL [LPYAAGCL] | 77.0857% | 
LPYFAACL [LPYFAACL] | 99.6712% | 
LPYFAGAL [LPYFAGAL] | 99.8977% | 
LPYFAGCL |  | cleaved bond (PepF [2]): F4-A5, major; also recorded: A5-G6, major
LPYFAGCL [sXIP, reference compound] | 99.5932% | 
LPYFAICL [LPYFAICL] | 1.804% | 
LPYFGGCL [LPYFGGCL] | 69.5765% | 
LPYFIGCL [LPYFIGCL] | 78.4996% | peptidase resistance in the screening (PepF [1]): higher peptidase resistance
LPYFMGCL [LPYFMGCL] | 85.0947% | peptidase resistance in the screening (PepF [1]): higher peptidase resistance
LPYFMICL [LPYFMICL] | 10.0484% | 
LPYFTGCL [LPYFTGCL] | 97.3896% | 
LPYFVGCL [LPYFVGCL] | 94.8201% | 
LPYWAGCL [LPYWAGCL] | 68.1634% | peptidase resistance in the screening (PepF [1]): higher peptidase resistance
LPYWIGCL [LPYWIGCL] |  | proteolysis by PepF in vitro (PepF [3]): slower proteolysis; degradation kinetics compared to the WT pheromone (PepF [4]): reduced degradation kinetics
LPYYAGCL [LPYYAGCL] | 89.6196% | peptidase resistance in the screening (PepF [1]): higher peptidase resistance
LPYYIGCL [LPYYIGCL] |  | proteolysis by PepF in vitro (PepF [3]): slower proteolysis
VPFFMIYY [sXIPSve] |  | PepF-mediated degradation, fold less efficient compared to XIPSsa/Sth (PepFSsa): ~ 15 fold
_PYFAGCL [sXIP variant of the screening lacking the first residue] |  | Max specific luciferase [5]: 1453.53 RLU/OD600
_PYFMGCL [sXIP variant of the screening lacking the first residue] | 28.6586% | Max specific luciferase [5]: 2144.5 RLU/OD600
